Experimental data published in patent US20240262812A1, “N-SUBSTITUTED PHENYLSULFONAMIDE COMPOUND AND USE THEREOF” (Shanghai Leado Pharmatech Co., Ltd., priority 2021, published 2024).

Molecular target: T1, mTRPA1 (Mus musculus, UniProt Q8BLA8)
T1 construct: expressed in transfected cells
Test: IonWorks Barracuda (IWB) automated patch clamp, TRPA1 inhibitory activity
Assay type: cell-based
Conditions: HEK293 cells stably expressing mTRPA1, current induced by AITC, amplitude at +100 mV; read-out: IC50 (inhibition activity on TRPA1)
Description: In this example, the inhibitory activity of the compounds prepared in some examples of the present invention on transient receptor potential channel protein ankyrin 1 (TRPA1) was tested. Among them, compound of formula A (WO2010075353) was used as the positive control compound: […]
Test method using IonWorks Barracuda (IWB) automated patch clamp detection: HEK293 cells stably expressing mTRPA1 were placed in the T175 culture flask with DMEM medium containing 15 µg/mL Blasticidin S HCl, 200 µg/mL Hygromycin B and 10% FBS, and cultured in 37° C., 5% CO2 incubator. When the cell density reached about 80%, the culture medium was removed, washed once with phosphate buffered saline (PBS) without calcium and magnesium. 3 mL of Trypsin was added to digest for 2 min, 7 mL of culture solution was added to terminate the digestion. The cells were collected to 15 mL centrifuge tube and centrifuged at 800 rpm for 3 min. After the supernatant was removed, the cells were added to appropriate volume of extracellular fluid for re-suspending, and the cell density was controlled at 2-3×10^6/mL for use in IWB experiment. Extracellular fluid formulation (in mM): 140 NaCl, 5 KCl, 1 MgCl2, 10 HEPES, 0.5 EGTA, 10 Glucose (pH 7.4); intracellular fluid formulation (in mM): 140 CsCl, 10 HEPES, 5 EGTA, 0.1 CaCl2, 1 MgCl2 (pH 7.2). 28 mg/mL of amphotericin B was freshly prepared with DMSO on the day of experiment, and then final concentration of 0.1 mg/mL was prepared with intracellular fluid.
Population patch clamp (PPC) plate was used in IWB experiment. The entire detection process was automatically carried out by the instrument, that is, extracellular fluid was added into 384 wells of PPC plate, and after intracellular fluid was added under PPC plate (in plenum), 6 µL of cell fluid was added for sealing test, and finally the intracellular fluid in plenum was replaced with intracellular fluid containing amphotericin B to establish a whole-cell recording mode after perforating sealed cells. The sampling frequency for recording TPRA1 current was 10 kHz, the cells were clamped at 0 mV, the voltage stimulation command (channel protocol) was a ramp voltage from −100 mV to +100 mV for 300 ms. This voltage stimulation was applied every 10 s, mTRPA1 current was induced by 300 µM AITC.
Data recording and current amplitude measurement export were carried out by IWB software (version 2.5.3, Molecular Devices Corporation, Union City, CA). No statistics was recorded for holes with sealing impedance lower than 20 MΩ. The original current data was corrected by software for leak subtraction. TRPA1 current amplitude was measured at +100 mV. […] If IC50 value of HC030031 exceeded 3 times of the average IC50 value previously obtained on each plate, it would be re-tested. The dose-effect curve of compounds and IC50 were fitted and calculated by GraphPad Prism 5.02 (GraphPad Software, San Diego, CA).
Some compounds of the present invention were subjected to IC50 inhibition activity test using the IonWorks Barracuda (IWB) automated patch clamp detection method.

T1 sequence (Q8BLA8 whole entry): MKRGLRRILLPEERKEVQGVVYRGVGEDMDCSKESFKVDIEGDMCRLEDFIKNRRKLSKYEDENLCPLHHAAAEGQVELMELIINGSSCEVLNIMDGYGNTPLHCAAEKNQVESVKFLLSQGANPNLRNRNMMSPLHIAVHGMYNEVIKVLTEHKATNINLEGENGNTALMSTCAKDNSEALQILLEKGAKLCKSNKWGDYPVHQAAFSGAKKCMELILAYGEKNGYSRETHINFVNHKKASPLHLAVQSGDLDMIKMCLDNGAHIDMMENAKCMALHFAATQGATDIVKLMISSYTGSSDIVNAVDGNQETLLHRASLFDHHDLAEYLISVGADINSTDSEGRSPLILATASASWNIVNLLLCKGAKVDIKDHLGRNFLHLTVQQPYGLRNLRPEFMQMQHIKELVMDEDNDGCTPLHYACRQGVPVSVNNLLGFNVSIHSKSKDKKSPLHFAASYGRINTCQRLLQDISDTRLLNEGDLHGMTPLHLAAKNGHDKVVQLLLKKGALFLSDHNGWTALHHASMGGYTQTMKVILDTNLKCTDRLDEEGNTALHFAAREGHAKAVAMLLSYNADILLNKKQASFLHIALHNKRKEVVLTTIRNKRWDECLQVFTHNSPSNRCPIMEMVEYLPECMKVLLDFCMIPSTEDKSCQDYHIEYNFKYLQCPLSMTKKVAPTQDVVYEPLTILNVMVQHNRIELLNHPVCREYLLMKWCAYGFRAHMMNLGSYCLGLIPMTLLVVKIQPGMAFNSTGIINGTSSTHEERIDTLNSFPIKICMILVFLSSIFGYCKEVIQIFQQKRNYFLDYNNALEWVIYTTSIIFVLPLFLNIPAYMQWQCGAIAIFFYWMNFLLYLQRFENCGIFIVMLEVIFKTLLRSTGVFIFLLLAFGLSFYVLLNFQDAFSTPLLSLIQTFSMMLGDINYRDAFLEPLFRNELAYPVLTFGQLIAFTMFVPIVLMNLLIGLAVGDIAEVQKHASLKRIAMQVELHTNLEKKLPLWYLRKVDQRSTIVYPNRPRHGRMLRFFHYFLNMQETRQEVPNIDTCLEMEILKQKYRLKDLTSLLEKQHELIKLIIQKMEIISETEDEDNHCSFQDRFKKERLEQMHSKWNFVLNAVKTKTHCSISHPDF

Row | IC50 | Structure (SMILES)
1 | 20 to 50 µM | O=S(=O)(Nc1cc(/C=N\O)ccc1-c1ccco1)c1ccccc1 [IC-1, N-(2-(furan-2-yl)-5-((oximido)methyl)phenyl)benzenesulfonamide]
2 | 10 to 20 µM | CNCc1ccc(-c2ccco2)c(NS(=O)(=O)c2ccc(Br)s2)c1 [IA-23, 5-Bromo-N-(2-(furan-2-yl)-5-((methylamino)methyl)phenyl)thiophene-2-sulfonamide]
3 | 1 to 5 µM | CNCc1ccc(NS(=O)(=O)c2ccccc2F)c(-c2ccco2)c1 [IA-28, 2-Fluoro-N-(2-(furan-2-yl)-4-((methylamino)methyl)phenyl)benzenesulfonamide]
4 | 5 to 10 µM | CNCc1ccc(-c2ccco2)c(NS(=O)(=O)c2ccc(OC)cc2)c1 [IA-6, 4-Methoxy-N-(2-(furan-2-yl)-5-((methylamino)methyl)phenyl)benzenesulfonamide]
5 | 1 to 5 µM | CNCc1ccc(NS(=O)(=O)c2ccccc2)c(-c2ccco2)c1 [IA-26, N-(2-(furan-2-yl)-4-((methylaamino)methyl)phenyl)benzenesulfonamide]
6 | 1 to 5 µM | NCc1ccc(NS(=O)(=O)c2ccc(F)cc2)c(-c2ccco2)c1 [ID-6, N-(4-(aminomethyl)-2-(furan-2-yl)phenyl)-4-fluorobenzenesulfonamide]
7 | 20 to 50 µM | CNCc1ccc(-c2ccco2)c(NS(=O)(=O)Cc2ccccc2)c1 [IA-24, N-(2-(furan-2-yl)-5-((methylamino)methyl)phenyl)-1-phenylmethanesulfonamide]
8 | 1 to 5 µM | NCc1ccc(-c2cc[nH]n2)c(NS(=O)(=O)c2ccsc2)c1 [ID-8, N-(5-(aminomethyl)-2-(1H-pyrazole-3-yl)phenyl)thiophene-3-sulfonamide]
9 | 1 to 5 µM | CNCc1ccc(-c2cccs2)c(NS(=O)(=O)c2cccs2)c1 [IA-47, N-(2-(thiophene-2-yl)-5-((methylamino)methyl)phenyl)thiophene-2-sulfonamide]
10 | < 1 µM | CC(N)c1ccc(-c2ccco2)c(NS(=O)(=O)c2ccccc2)c1 (stereo not drawn) [IU-9, N-(5-(1-aminoethyl)-2-(furan-2-yl)phenyl)benzenesulfonamide]
11 | 1 to 5 µM | CNC(C)c1ccc(NS(=O)(=O)c2ccccc2)c(-c2ccco2)c1 (stereo not drawn) [IV-1, N-(2-(furan-2-yl)-4-(1-(methylamino)ethyl)phenyl)benzenesulfonamide]
12 | < 1 µM | CC(C)C(N)c1ccc(NS(=O)(=O)c2ccccc2)c(-c2ccco2)c1 (stereo not drawn) [IU-5, N-(4-(1-amino-2-methylpropyl)-2-(furan-2-yl)phenyl)benzenesulfonamide]
13 | 1 to 5 µM | CNC(C)c1ccc(-c2ccco2)c(NS(=O)(=O)c2ccccc2)c1 (stereo not drawn) [IV-2, N-(2-(furan-2-yl)-5-(1-(methylamino)ethyl)phenyl)benzenesulfonamide]
14 | 5 to 10 µM | CNCc1ccc(NS(=O)(=O)c2cccnc2)c(-c2ccco2)c1 [IA-31, N-(2-(furan-2-yl)-4-((methylamino)methyl)phenyl)pyridine-3-sulfonamide]
15 | 1 to 5 µM | NC(c1ccccc1)c1ccc(NS(=O)(=O)c2ccccc2)c(-c2ccco2)c1 (stereo not drawn) [IU-7, N-(4-(amino(phenyl)methyl)-2-(furan-2-yl)phenyl)benzenesulfonamide]

The remaining lines, values behind:

Row | Structure (SMILES) | IC50
16 | CNCc1ccc(-c2c(C)noc2C)c(NS(=O)(=O)c2ccccc2)c1 [IA-53, N-(2-(3,5-dimethylisoxazol-4-yl)-5-((methylamino)methyl)phenyl)benzenesulfonamide] | 5 to 10 µM
17 | CNCc1ccc(-c2ccco2)c(NS(=O)(=O)c2c(F)cccc2F)c1 [IA-12, 2,6-Difluoro-N-(2-(furan-2-yl)-5-((methylamino)methyl)phenyl)benzenesulfonamide] | 5 to 10 µM
18 | CNCc1ccc(-c2ccco2)c(NS(=O)(=O)c2cccc(F)c2)c1 [IA-3, 3-Fluoro-N-(2-(furan-2-yl)-5-((methylamino)methyl)phenyl)benzenesulfonamide] | 1 to 5 µM
19 | CNCc1ccc(-c2ccco2)c(NS(=O)(=O)c2ccc(OC(F)(F)F)cc2)c1 [IA-9, 4-Trifluoromethoxy-N-(2-(furan-2-yl)-5-((methylamino)methyl)phenyl)benzenesulfonamide] | 20 to 50 µM
20 | CNCc1ccc(-c2ccoc2)c(NS(=O)(=O)c2ccccc2)c1 [IA-42, N-(2-(furan-3-yl)-5-((methylamino)methyl)phenyl)benzenesulfonamide] | 1 to 5 µM
21 | CC(=O)NCc1ccc(NS(=O)(=O)c2ccsc2)c(-c2ccco2)c1 [IE, N-(3-(furan-2-yl)-4-(thiophene-3-sulfonamide)benzyl)acetamide] | 20 to 50 µM
22 | O=S(=O)(Nc1cc(CO)ccc1-c1ccco1)c1ccccc1 [IH, N-(2-(furan-2-yl)-5-(hydroxymethyl)phenyl)benzenesulfonamide] | 20 to 50 µM
23 | CNCc1ccc(NS(=O)(=O)c2cccs2)c(-c2ccco2)c1 [IA-29, N-(2-(furan-2-yl)-4-((methylamino)methyl)phenyl)thiophene-2-sulfonamide] | < 1 µM
24 | CNCc1ccc(-n2ccnn2)c(NS(=O)(=O)c2ccccc2)c1 [IQ-4, N-(5-((methylamino)methyl)-2-(1H-1,2,3-triazol-1-yl)phenyl)benzenesulfonamide] | 5 to 10 µM
25 | CNCc1ccc(-c2ccco2)c(NS(=O)(=O)c2ccc(Cl)cc2)c1 [IA-7] | 5 to 10 µM
26 | CNCc1ccc(NS(=O)(=O)c2ccc(F)cc2)c(-c2ccco2)c1 [IA-27, 4-Fluoro-N-(2-(furan-2-yl)-4-((methylamino)methyl)phenyl)benzenesulfonamide] | 1 to 5 µM
27 | CNCCc1ccc(NS(=O)(=O)c2ccsc2)c(-c2ccco2)c1 [IS, N-(2-(furan-2-yl)-4-(2-(methylamino)ethyl)phenyl)thiophene-3-sulfonamide] | 1 to 5 µM
28 | CC(N)c1ccc(NS(=O)(=O)c2ccccc2)c(-c2ccco2)c1 (stereo not drawn) [IU-2, N-(4-(1-aminoethyl)-2-(furan-2-yl)phenyl)benzenesulfonamide] | 1 to 5 µM
29 | CC(N)c1ccc(N(C)S(=O)(=O)c2ccccc2)c(-c2ccco2)c1 (stereo not drawn) [IU-1] | 1 to 5 µM
30 | CNCc1ccc(-n2nccn2)c(NS(=O)(=O)c2ccccc2)c1 [IQ-3, N-(5-((methylamino)methyl)-2-(2H-1,2,3-triazol-2-yl)phenyl)benzenesulfonamide] | 1 to 5 µM
31 | NCc1ccc(NS(=O)(=O)c2ccccc2)c(-c2ccco2)c1 [ID-4, N-(4-(aminomethyl)-2-(furan-2-yl)phenyl)benzenesulfonamide] | 1 to 5 µM
32 | CNCc1ccc(-c2ccco2)c(NS(=O)(=O)c2ccc(Cl)nc2)c1 [IA-18, 6-Chloro-N-(2-(furan-2-yl)-5-((methylamino)methyl)phenyl)pyridine-3-sulfonamide] | 10 to 20 µM
33 | CNCc1ccc(-c2ccco2)cc1NS(=O)(=O)c1ccccc1 [IA-40, N-(5-(furan-2-yl)-2-((methylamino)methyl)phenyl)benzenesulfonamide] | 50 to 100 µM
34 | CNCc1cc(NS(=O)(=O)c2ccccc2)cc(-c2ccco2)c1 [IA-39, N-(3-(furan-2-yl)-5-((methylamino)methyl)phenyl)benzenesulfonamide] | 20 to 50 µM
35 | O=S(=O)(Nc1ccc(CNC2CCC2)cc1-c1ccco1)c1ccsc1 [IA-34, N-(4-((cyclobutylamino)methyl)-2-(furan-2-yl)phenyl)thiophene-3-sulfonamide] | 1 to 5 µM
36 | CNCc1ccc(-c2ccco2)c(NS(=O)(=O)c2ccccc2F)c1 [IA-2, 2-Fluoro-N-(2-(furan-2-yl)-5-((methylamino)methyl)phenyl)benzenesulfonamide] | 1 to 5 µM
